Measured values reported in patent US20080103198A1, “METHODS FOR TREATMENT OF COCHLEAR AND VESTIBULAR DISORDERS” (priority 2006, published 2008).
“And” between values parts separate entries of the source, which are not always exact repeats. Identical values can stand only once.

Experiments:
[1] = system: Li-Pilo SE; experiment: Lithium-pilocarpine model (Example 2): mortality and latency to SRS; type: in vivo, rat; design: degree of mortality: concentration or dose not given beside the values; conditions: for mortality over the first 48 h after SE: early cell counting group; for degree of mortality: latency to SRS / late cell counting group
Description: The model induced in rats by pilocarpine associated with lithium (Li-Pilo) reproduces most of the clinical and neurophysiological features of human temporal lobe epilepsy (See, Turski et al., 1989; Synapse 3:154-171; Cavalheiro, 1995, Ital J Neurol Sci 16:33-37). In adult rats, the systemic administration of pilocarpine leads to SE that may last for up to 24 h. The lethality rate reaches 30-50% during the first days. In the surviving animals, neuronal damage predominates within the hippocampal formation, the piriform and entorhinal cortices, thalamus, amygdaloid complex, neocortex and substantia nigra.
In the present study, we tested the effects of different doses of various doses of test compound, i.e. 30, 60, 90 and 120 mg/kg (referred to herein as RWJ30, RWJ60, RWJ90 and RWJ120) using the same design as in the previous study. The treatment was started one hour after the onset of status epilepticus (SE) and the animals were treated with a second injection of the same dose of the drug. This early treatment of SE was followed by a 6 day test compound treatment. This report concerns the effects of the four different doses of test compound on neuronal damage in hippocampus and parahippocampal cortices. The study on the latency to the onset of epilepsy is still incomplete but we will show the data we have got at present which have been performed on a limited group of animals. The latency to spontaneous epileptic seizures was correlated on the same rats to the number of neurons remaining in the areas involved in the circuit of seizures.
Adult male Sprague-Dawley rats provided by Janvier Breeding Center (Le Genest-St-Isle, France) were housed under controlled, uncrowded standard conditions at 20-22° C. (light/dark cycle, 7.00 a.m.-7.00 p.m. lights on), with food and water available ad libitum. All animal experimentation was performed in accordance with the rules of the European Communities Council Directive of Nov. 24, 1986 (86/609/EEC), and the French Department of Agriculture (License No 67-97).
All rats received lithium chloride (3 meq/kg, i.p., Sigma, St Louis, Mo., U.S.A.) and about 20 h later, all animals received also methylscopolamine bromide (1 mg/kg, s.c., Sigma) that was administered to limit the peripheral effects of the convulsant. SE was induced by injecting pilocarpine hydrochloride (25 mg/kg, s.c., Sigma) 30 min after methylscopolamine. The effects of increasing doses of test compound (RWJ) were studied in 5 groups of rats. The animals received either 2.5 mg/kg diazepam, i.m., (DZP), or 30, 60, 90 or 120 mg/kg of test compound (RWJ30, RWJ60, RWJ90, RWJ120), i.p., at 1 h after the onset of SE. The control group received vehicle instead of pilocarpine and test compound. The rats surviving SE were then injected about 10 h after the first test compound injection with a second i.p. injection of 1.25 mg/kg DZP for the DZP group or of the same dose of test compound as in the morning and were maintained under a twice daily test compound treatment for 6 additional days (s.c.) while DZP rats received a vehicle injection. The effects of the four doses of test compound on the latency to occurrence of spontaneous recurrent seizures (SRS) were investigated by daily video recording of the animals for 10 h per day.

[2] = system: Li-Pilo SE; experiment: Lithium-pilocarpine model (Example 2): quantification of cell densities; type: in vivo, rat; conditions: for number of neuronal cell bodies, Dorsal entorhinal, layer II / number of neuronal cell bodies, Dorsal entorhinal, layer III / number of neuronal cell bodies, Piriform, layer II, dorsal / number of neuronal cell bodies, Piriform, layer II, ventral / number of neuronal cell bodies, Piriform, layer III / number of neuronal cell bodies, Ventral entorhinal, layer II / number of neuronal cell bodies, Ventral entorhinal, layers III-IV / number of neuronal cell bodies, hippocampus CA1 area / number of neuronal cell bodies, hippocampus CA3 area / number of neuronal cell bodies, hippocampus Hilus / damage, hilus of dentate gyrus / cell loss, CA1 pyramidal layer: 14 days after SE; for number of neuronal cell bodies, Dorsal entorhinal, layer II / number of neuronal cell bodies, Dorsal entorhinal, layer III / number of neuronal cell bodies, Piriform, layer II, dorsal / number of neuronal cell bodies, Piriform, layer II, ventral / number of neuronal cell bodies, Piriform, layer III / number of neuronal cell bodies, Ventral entorhinal, layer II / number of neuronal cell bodies, Ventral entorhinal, layers III-IV / number of neuronal cell bodies, hippocampus CA1 area / number of neuronal cell bodies, hippocampus CA3 area / number of neuronal cell bodies, hippocampus Hilus: mean ± S.E.M.
Description: Quantification of cell densities was performed at two times after SE: a first group was studied 14 days after SE and was composed by 7 DZP, 8 RWJ30, 11 RWJ60, 10 RWJ90, 8 RWJ120 and 8 control rats not subjected to SE. A second group used for the study of the latency to SRS was sacrificed either 8 weeks after the first SRS or at 5 months when no SRS could be seen in that delay and was composed by 7 DZP, 2 RWJ30, 3 RWJ60, 3 RWJ90, 4 RWJ120 rats. Animals were deeply anesthetized with 1.8 g/kg pentobarbital (Dolethal®, Vétoquinol, Lure, France). Brains were then removed and frozen. Serial 20 μm slices were cut in a cryostat, air-dried during several days before thionine staining. Quantification of cell densities was performed with a 10×10 boxes 1 cm^2 microscopic grid on coronal sections according to the stereotaxic coordinates of the rat brain atlas (Paxinos and Watson, 1986, The Rat Brain in Stereotaxic coordinates, 2nd ed. Academic Press, San Diego). The grid of counting was placed on a well-defined area of the cerebral structure of interest and counting was carried out with a microscopic enlargement of 200- or 400-fold defined for each single cerebral structure. Cell counts were performed twice on each side of three adjacent sections for each region by a single observer unaware of the animal's treatment. The number of cells obtained in the 12 counted fields in each cerebral structure was averaged. This procedure was used to minimize the potential errors that could result from double counting leading to overestimation of cell numbers. […] Counts involved only neurons with cell bodies larger than 10 μm. Cells with small cell bodies were considered as glial cells and were not counted.
For neuronal damage, statistical analysis between groups was performed by means of a one-way analysis of variance followed by a post-hoc Scheffe's test using the Statview software.

NC(=O)OC[C@@H](O)c1ccccc1Cl [test compound]
latency to spontaneous seizures, individual rats ([1]; 30 mg/kg, two rats): 8 days and 9 days
first spontaneous seizure after SE, individual rats ([1]; 60 mg/kg, 3 rats): 7 days and 8 days and 38 days
first spontaneous seizure after SE, individual rats ([1]; 90 mg/kg, 3 rats): 9 days and 10 days and 51 days
first spontaneous seizure after SE, individual rats ([1]; 120 mg/kg, 2/4 rats with prolonged latency): 79 days and 44 days
recording time following SE without any seizure ([1]; 120 mg/kg, the two other rats): > 5 months
mortality over the first 48 h after SE ([1]; RWJ30 (30 mg/kg i.p.)): 43%
mortality over the first 48 h after SE ([1]; RWJ60 (60 mg/kg i.p.)): 0%
mortality over the first 48 h after SE ([1]; RWJ90 (90 mg/kg i.p.)): 0%
mortality over the first 48 h after SE ([1]; RWJ120 (120 mg/kg i.p.)): 47%
degree of mortality ([1]; RWJ30): 50%
degree of mortality ([1]; RWJ60): 0%
degree of mortality ([1]; RWJ90): 0%
degree of mortality ([1]; RWJ120): 0%
damage, piriform cortex ventral layer II ([2]; 60 mg/kg): 56%
cell loss, piriform cortex layer III ([2]; 120 mg/kg): 21%
damage, piriform cortex ventral layer II ([2]; 120 mg/kg): 9%
neuroprotection in CA3 pyramidal layer ([2]; 120 mg/kg, difference with DZP not significant): tendency to a slight neuroprotection
neuroprotection in all layers of the dorsal entorhinal cortex ([2]; 30 and 60 mg/kg): did not afford any neuroprotection
damage, piriform cortex dorsal layer II ([2]; 60-120 mg/kg): 4-21%
cell loss, piriform cortex layer III ([2]; 60 and 90 mg/kg (two lower of the 60-120 mg/kg doses)): 53-64%
cell losses, ventral entorhinal cortex layers III/IV ([2]; 90 and 120 mg/kg): 18-21%
damage remaining, entorhinal cortex dorsal layers II and III/IV and ventral layer II ([2]; 90 and 120 mg/kg): 4-14%
number of neuronal cell bodies, Dorsal entorhinal, layer II ([2]; RWJ30 = 30 mg/kg): 23.4 ± 0.8
number of neuronal cell bodies, Dorsal entorhinal, layer III ([2]; RWJ30 = 30 mg/kg): 21.5 ± 1.3
number of neuronal cell bodies, Piriform, layer II, dorsal ([2]; RWJ30 = 30 mg/kg): 15.7 ± 3.6
number of neuronal cell bodies, Piriform, layer II, ventral ([2]; RWJ30 = 30 mg/kg): 7.2 ± 4.6
number of neuronal cell bodies, Piriform, layer III ([2]; RWJ30 = 30 mg/kg): 1.8 ± 2.3
number of neuronal cell bodies, Ventral entorhinal, layer II ([2]; RWJ30 = 30 mg/kg): 22.7 ± 1.2
number of neuronal cell bodies, Ventral entorhinal, layers III-IV ([2]; RWJ30 = 30 mg/kg): 13.2 ± 2.5
number of neuronal cell bodies, hippocampus CA1 area ([2]; RWJ30 = 30 mg/kg): 39.3 ± 5.0°°
number of neuronal cell bodies, hippocampus CA3 area ([2]; RWJ30 = 30 mg/kg): 35.7 ± 1.4
number of neuronal cell bodies, hippocampus Hilus ([2]; RWJ30 = 30 mg/kg): 33.0 ± 4.0
number of neuronal cell bodies, Dorsal entorhinal, layer II ([2]; RWJ60 = 60 mg/kg): 24.1 ± 0.7
number of neuronal cell bodies, Dorsal entorhinal, layer III ([2]; RWJ60 = 60 mg/kg): 24.0 ± 0.4
number of neuronal cell bodies, Piriform, layer II, dorsal ([2]; RWJ60 = 60 mg/kg): 28.9 ± 2.7°°
number of neuronal cell bodies, Piriform, layer II, ventral ([2]; RWJ60 = 60 mg/kg): 14.8 ± 5.9
number of neuronal cell bodies, Piriform, layer III ([2]; RWJ60 = 60 mg/kg): 6.9 ± 2.9
number of neuronal cell bodies, Ventral entorhinal, layer II ([2]; RWJ60 = 60 mg/kg): 23.1 ± 0.7
number of neuronal cell bodies, Ventral entorhinal, layers III-IV ([2]; RWJ60 = 60 mg/kg): 17.8 ± 2.8
number of neuronal cell bodies, hippocampus CA1 area ([2]; RWJ60 = 60 mg/kg): 31.9 ± 4.4
number of neuronal cell bodies, hippocampus CA3 area ([2]; RWJ60 = 60 mg/kg): 31.6 ± 2.1
number of neuronal cell bodies, hippocampus Hilus ([2]; RWJ60 = 60 mg/kg): 32.8 ± 5.4
number of neuronal cell bodies, Dorsal entorhinal, layer II ([2]; RWJ90 = 90 mg/kg): 26.3 ± 0.9
number of neuronal cell bodies, Dorsal entorhinal, layer III ([2]; RWJ90 = 90 mg/kg): 25.4 ± 1.3
number of neuronal cell bodies, Piriform, layer II, dorsal ([2]; RWJ90 = 90 mg/kg): 32.4 ± 1.3°
number of neuronal cell bodies, Piriform, layer II, ventral ([2]; RWJ90 = 90 mg/kg): 18.4 ± 5.1
number of neuronal cell bodies, Piriform, layer III ([2]; RWJ90 = 90 mg/kg): 9.0 ± 4.1
number of neuronal cell bodies, Ventral entorhinal, layer II ([2]; RWJ90 = 90 mg/kg): 26.7 ± 0.9°°
number of neuronal cell bodies, Ventral entorhinal, layers III-IV ([2]; RWJ90 = 90 mg/kg): 23.7 ± 1.7°
number of neuronal cell bodies, hippocampus CA1 area ([2]; RWJ90 = 90 mg/kg): 47.7 ± 5.4°
number of neuronal cell bodies, hippocampus CA3 area ([2]; RWJ90 = 90 mg/kg): 35.1 ± 1.0
number of neuronal cell bodies, hippocampus Hilus ([2]; RWJ90 = 90 mg/kg): 37.5 ± 5.2**°
number of neuronal cell bodies, Dorsal entorhinal, layer II ([2]; RWJ120 = 120 mg/kg): 27.3 ± 0.5
number of neuronal cell bodies, Dorsal entorhinal, layer III ([2]; RWJ120 = 120 mg/kg): 26.4 ± 0.9
number of neuronal cell bodies, Piriform, layer II, dorsal ([2]; RWJ120 = 120 mg/kg): 35.2 ± 1.3°
number of neuronal cell bodies, Piriform, layer II, ventral ([2]; RWJ120 = 120 mg/kg): 30.5 ± 1.5°
number of neuronal cell bodies, Piriform, layer III ([2]; RWJ120 = 120 mg/kg): 15.0 ± 2.5°°
number of neuronal cell bodies, Ventral entorhinal, layer II ([2]; RWJ120 = 120 mg/kg): 25.1 ± 0.7
number of neuronal cell bodies, Ventral entorhinal, layers III-IV ([2]; RWJ120 = 120 mg/kg): 24.5 ± 1.6°
number of neuronal cell bodies, hippocampus CA1 area ([2]; RWJ120 = 120 mg/kg): 65.5 ± 2.9°
number of neuronal cell bodies, hippocampus CA3 area ([2]; RWJ120 = 120 mg/kg): 39.8 ± 1.5
number of neuronal cell bodies, hippocampus Hilus ([2]; RWJ120 = 120 mg/kg): 44.8 ± 3.6
damage, hilus of dentate gyrus ([2]; RWJ30, 60 and 90 groups): 62-66%
cell loss, CA1 pyramidal layer ([2]; RWJ30, 60 or 90 rats): 36-57%
neuroprotection in piriform cortex ([2]; RWJ30 dose): did not protect any layer
cell loss, CA1 pyramidal layer ([2]; RWJ120): 13%
damage, hilus of dentate gyrus ([2]; RWJ120): 54%
damage, piriform cortex ventral layer II ([2]; second dose of 'the 60 and 120 mg/kg RWJ dose' as printed): 45%
